# Laboratory results: US6410592B1, “Aminomethylcarboxylic acid derivatives” (Akzo Nobel N.V., priority 1998, dated 2002)
# Structures can show the parent of a compound that is named as a salt.
# Molecular target: T1, human GlyT-1b transporter (Homo sapiens, UniProt P48067)
# T1 construct: expressed in transfected cells; host or cells: CHO cells, stably transfected, pcDNA3 expression construct
# T1 sequence (P48067 1-652 isoform P48067-3): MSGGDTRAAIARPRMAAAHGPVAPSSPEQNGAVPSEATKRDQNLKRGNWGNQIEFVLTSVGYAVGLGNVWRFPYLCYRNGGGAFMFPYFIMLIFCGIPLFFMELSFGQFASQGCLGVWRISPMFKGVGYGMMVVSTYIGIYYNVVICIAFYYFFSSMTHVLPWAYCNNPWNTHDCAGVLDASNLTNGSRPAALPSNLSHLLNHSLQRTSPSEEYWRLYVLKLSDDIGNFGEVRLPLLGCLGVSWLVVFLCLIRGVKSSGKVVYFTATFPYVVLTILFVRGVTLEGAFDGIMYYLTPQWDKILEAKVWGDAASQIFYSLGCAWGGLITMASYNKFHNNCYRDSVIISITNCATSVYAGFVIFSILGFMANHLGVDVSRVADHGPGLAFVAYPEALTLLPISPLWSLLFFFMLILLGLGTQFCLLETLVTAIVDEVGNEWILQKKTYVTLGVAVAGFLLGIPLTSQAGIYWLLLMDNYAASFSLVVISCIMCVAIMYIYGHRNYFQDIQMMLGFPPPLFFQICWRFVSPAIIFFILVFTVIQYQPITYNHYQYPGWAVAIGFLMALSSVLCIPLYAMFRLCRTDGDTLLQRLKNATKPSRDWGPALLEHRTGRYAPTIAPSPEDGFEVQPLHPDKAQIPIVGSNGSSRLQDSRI
# Assay: glycine uptake in CHO cells heterologously expressing the human GlyT-1b transporter
# Type: cell-based
# Details: [3H]glycine uptake, CHO cells stably expressing hGlyT-1b, 5 min preincubation, 10 min uptake, 37° C.
# Procedure: Method for determination of glycine uptake in CHO cells heterologously expressing the human GlyT-1b transporter.
# cDNA was generated by PCR according to the method described by Kim, K.-M. et al. Mol. Pharmacol. 1994, 45, 608-617. Sequence was verified by dideoxy sequencing using the ALF DNA sequencer™ (Pharmacia) and cloned into the expression construct pcDNA3 (Invitrogen).
# Transfection of hGlyT-1b into CHO cells was performed using a standard calcium phosphate technique as described by Sambrook, J. et al. (1989) in Molecular Cloning: A Laboratory Manual, Cold Spring Harbor Laboratory, Cold Spring Harbor, N.Y.
# Stably transfected cells were selected for 1 week in growth medium containing 1 mg.cm^−3 Geneticin. Individual clones were picked for further analysis and positives passaged routinely as described below.
# Cells stably expressing the hGlyT-1b gene were cultured at 37° C. in a 5% CO2 atmosphere in DMEM—NUT.MIX. F12 with Glutamax-1 (Gibco) containing Geneticin (0.5 mg.cm^−3, Gibco) and supplemented with 10% Fetalclone II (Hyclone). Maintenance culture was carried out in standard 80 cm^2 ventilated flasks (2 m^−6 filter, Nunc) and cells were subcultured by trypsinisation (Sigma) when confluent.
# Cells for uptake studies were plated in 96 well plates (17,000 cells per well) in the absence of Geneticin and cultured for 48 h before use. To measure glycine transport, cells were washed twice with Hanks' balanced salt solution (HBSS) pre-warmed to 37° C. and excess fluid removed before addition of test compounds dissolved in 0.200 cm^3 HBSS. Plates were incubated at 37° C. for 5 minutes before addition of [^3H]glycine (0.050 cm^3, 150 M^−6, 248 Bq.nmol^−1, NEN) and incubation continued for a further 10 minutes. Uptake was terminated by washing cells with ice-cold HBSS before removal of excess fluid and addition of 0.200 cm^3 scintillation cocktail to each well. Plates were sealed with adhesive film, shaken to ensure samples were homogenous before scintillation counting in a plate counter.
# Data were analysed using standard curve fitting procedures to produce a pIC50 value for active compounds (where pIC50 is the negative logarithm of the concentration of test compound causing 50% inhibition of uptake).
row,"pIC50, Inhibition of glycine transport by hGlyT-1",Structure (SMILES)
1,6.8,"COc1ccc2c(c1)CC[C@H](CN(C)CC(=O)[O-])[C@@H]2c1ccccc1.[Li+] (relative stereo) [Example (−)-4, (−)-Lithium cis-N-methyl-N-(6-methoxy-1-phenyl-1,2,3,4-tetrahydronaphthalen-2-ylmethyl) aminomethylcarboxylate]"

# Same assay, conditions: [3H]glycine uptake, CHO cells stably expressing hGlyT-1b, 5 min preincubation, 10 min uptake, 37° C.; read-out: pIC50, Inhibition of glycine transport by hGlyT-1 (converted)
row,Structure (SMILES),IC50
1,"CN(CC(=O)O)CC1CCc2cc(C(F)(F)F)ccc2C1c1ccc(F)cc1 (racemic) [(+/−)-8, Lithium cis-N-methyl-N-[1-(4-fluorophenyl)-6-trifluoromethyl-1,2,3,4-tetrahydronaphthalen-2-ylmethyl] aminomethylcarboxylate]",126 nM
2,"CN(CC(=O)O)CC1CCc2cc(Oc3ccccc3)ccc2C1c1ccccc1 (racemic) [(+/−)-17, Lithium cis-N-methyl-N-(6-phenoxy-1-phenyl-1,2,3,4-tetrahydronaphthalen-2-ylmethyl) aminomethylcarboxylate]",158 nM
3,"CN(CC(=O)O)CC1CCc2cc(Oc3ccccc3)ccc2C1c1ccccc1 (single isomer, unassigned; (-)) [Example (−)-17, (−)-Sodium cis-N-methyl-N-(6-phenoxy-1-phenyl-1,2,3,4-tetrahydronaphthalen-2-ylmethyl) aminomethylcarboxylate]",100 nM
4,"CN(CC(=O)O)CC1CCc2cc(C(F)(F)F)ccc2C1c1ccc(F)cc1 (single isomer, unassigned; (-)) [Example (−)-8, (−)-Lithium N-methyl-N-[1-(4-fluorophenyl)-6-trifluoromethyl-1,2,3,4-tetrahydronaphthalen-2-ylmethyl] aminomethylcarboxylate]",50.1 nM

# Next, values leading:
row,IC50,Structure (SMILES)
1,251 nM,"Cc1ccc2c(c1)CCC(CN(C)CC(=O)O)C2c1ccccc1 (racemic) [(+/−)-23, Lithium cis-N-methyl-N-(6-methyl-1-phenyl-1,2,3,4-tetrahydronaphthalen-2-ylmethyl) aminomethylcarboxylate]"
2,501 nM,"COc1ccc2c(c1)CCC(CN(C)CC(=O)O)C2c1ccccc1 (racemic) [(+/−)-4, Lithium cis-N-methyl-N-(6-methoxy-1-phenyl-1,2,3,4-tetrahydronaphthalen-2-ylmethyl) aminomethylcarboxylate]"
3,126 nM,"Cc1ccc2c(c1)CCC(CN(C)CC(=O)O)C2c1ccccc1 (single isomer, unassigned; (-)) [Example (−)-23, (−)-Sodium cis-N-methyl-N-(6-methyl-1-phenyl-1,2,3,4-tetrahydronaphthalen-2-ylmethyl) aminomethylcarboxylate]"
4,251 nM,"CN(CC(=O)O)C[C@H]1CCc2cc(OCC(C)(C)C)ccc2[C@H]1c1ccccc1.Cl (racemic) [(+/−)-34, cis-N-Methyl-N-[6-(2,2-dimethylpropyloxy)-1-phenyl-1,2,3,4-tetrahydronaphthalen-2-ylmethyl] aminomethylcarboxylic acid hydrochloride]"
5,251 nM,"CN(CC(=O)O)CC1CCc2cc(OCC(C)(C)C)ccc2C1c1ccccc1 (single isomer, unassigned; (-)) [Example (−)-34, (−)-Lithium cis-N-methyl-N-[1-phenyl-6-(2,2-dimethylpropyloxy)-1,2,3,4-tetrahydronaphthalen-2-ylmethyl] aminomethylcarboxylate]"

# System: not given
# Assay: not given
# Details: not given
row,Structure (SMILES),melting point
1,"CN(CC(=O)O)CC1CCc2cc(C(F)(F)F)ccc2C1c1ccc(F)cc1 (single isomer, unassigned; (-)) (as salt: salt) [Example (−)-8, (−)-Lithium N-methyl-N-[1-(4-fluorophenyl)-6-trifluoromethyl-1,2,3,4-tetrahydronaphthalen-2-ylmethyl] aminomethylcarboxylate]",161 to 164 °C
2,CN(CC(=O)O)C[C@H]1CCc2cc(OC3CCCCC3)ccc2[C@H]1c1ccccc1.Cl (relative stereo),> 210 °C (dec.)
3,CN(CC(=O)O)C[C@H]1CCc2cc(OCc3ccccc3)ccc2[C@H]1c1ccccc1.Cl (relative stereo),200 to 210 °C
4,CN(CC(=O)O)C[C@H]1CCc2cc(-c3ccccc3)ccc2[C@H]1c1ccccc1.Cl (relative stereo),210 to 221 °C
5,COc1ccc2c(c1)CC[C@H](CN(C)CC(=O)O)[C@@H]2c1cccc(C)c1.O=C(O)C(F)(F)F (relative stereo),96 to 106 °C
6,"CN(CC(=O)O)CC1CCc2cc(C(F)(F)F)ccc2C1c1ccc(F)cc1 (racemic) (as salt: salt) [(+/−)-8, Lithium cis-N-methyl-N-[1-(4-fluorophenyl)-6-trifluoromethyl-1,2,3,4-tetrahydronaphthalen-2-ylmethyl] aminomethylcarboxylate]",137 to 142 °C
7,"CN(CC(=O)O)CC1CCc2cc(Oc3ccccc3)ccc2C1c1ccccc1 (racemic) (as salt: salt) [(+/−)-17, Lithium cis-N-methyl-N-(6-phenoxy-1-phenyl-1,2,3,4-tetrahydronaphthalen-2-ylmethyl) aminomethylcarboxylate]",191 to 200 °C

# Second part, the compound after the results:
row,melting point,Structure (SMILES)
1,135 to 138 °C,"Cc1ccc2c(c1)CCC(CN(C)CC(=O)O)C2c1ccccc1 (racemic) (as salt: salt) [(+/−)-23, Lithium cis-N-methyl-N-(6-methyl-1-phenyl-1,2,3,4-tetrahydronaphthalen-2-ylmethyl) aminomethylcarboxylate]"
2,166 to 171 °C,COC(=O)c1ccc2c(c1)CC[C@H](CN(C)CC(=O)O)[C@@H]2c1ccccc1.Cl (relative stereo)
3,205 to 211 °C (dec.),CN(CC(=O)O)C[C@H]1CCc2ccccc2[C@H]1c1ccccc1.Cl (relative stereo)
4,151 to 155 °C,"CN(CC(=O)O)C[C@H]1CCc2cc(OCC(C)(C)C)ccc2[C@H]1c1ccccc1.Cl (racemic) [(+/−)-34, cis-N-Methyl-N-[6-(2,2-dimethylpropyloxy)-1-phenyl-1,2,3,4-tetrahydronaphthalen-2-ylmethyl] aminomethylcarboxylic acid hydrochloride]"
5,168 to 170 °C,"CN(CC(=O)O)CC1CCc2cc(OCC(C)(C)C)ccc2C1c1ccccc1 (single isomer, unassigned; (-)) (as salt: salt) [Example (−)-34, (−)-Lithium cis-N-methyl-N-[1-phenyl-6-(2,2-dimethylpropyloxy)-1,2,3,4-tetrahydronaphthalen-2-ylmethyl] aminomethylcarboxylate]"
6,197 °C (dec.),CN(CC(=O)O)C[C@H]1CCc2cc(C#N)ccc2[C@H]1c1ccccc1.Cl (relative stereo)
7,173 to 177 °C,CN(CC(=O)O)C[C@H]1CCc2cc(OCC3CC3)ccc2[C@H]1c1ccccc1.Cl (relative stereo)
